# From patent US8979831B2 (priority 2008, dated 2015)
# Several values for one entry are separate records, joined by “and”; a condition that tells them apart may be missing. Equal values may be shown once. Read-outs that look alike come from different tables or passages of the source.
# Legend:
# [1] = tested on: porcine liver samples; settings: for Tissue destruction, visual observation: injected alone into porcine liver
# [2] = tested on: liver parenchyma; design: species or system porcine; settings: for Final thermocouple pH after five minutes: after NaOH pre-injection
# [3] = 100 microliters alone, 0:00 min
# [4] = 100 microliters alone, 0:15 min
# [5] = 100 microliters alone, 0:30 min
# [6] = 100 microliters alone, 1:00 min
# [7] = 100 microliters alone, 1:15 min
compound,measurement,setting,value
CC(=O)OC(C)=O [Acetic Anhydride],Recorded temperature changes,[1],0.0-2.94 degrees C.
same,Temperature change from baseline,[1],≥ 1.0 degree C.
same,pH,[1]; [3],6.33 and 7.52 and 7.1 and 6.14 and 6.23
same,pH,[1]; [4],5.2 and 3.75 and 3.34 and 5.7 and 6.03
same,pH,[1]; [5],5.06 and 3.54 and 3.2 and 5.63 and 6.01
same,pH,"[1]; 100 microliters alone, 0:45 min",4.9 and 3.43 and 3.11 and 5.54 and 5.92
same,pH,[1]; [6],4.81 and 3.36 and 3.05 and 5.42 and 5.91
same,pH,[1]; [7],4.75 and 3.27 and 2.98 and 5.25 and 5.87
same,pH,"[1]; 100 microliters alone, 2:00 min",4.47 and 3.09 and 2.77 and 4.3 and 5.5
same,pH,"[1]; 100 microliters alone, 2:15 min",4.4 and 3.03 and 2.75 and 4.23 and 5.3
same,pH,"[1]; 100 microliters alone, 2:30 min",4.35 and 2.96 and 2.71 and 4.21 and 4.79
same,pH,"[1]; 100 microliters alone, 2:45 min",4.3 and 2.92 and 2.68 and 4.16 and 4.65
same,pH,"[1]; 100 microliters alone, 3:00 min",4.25 and 2.9 and 2.65 and 4.12 and 4.57
same,pH,"[1]; 100 microliters alone, 3:15 min",4.22 and 2.88 and 2.61 and 4.01 and 4.48
same,pH,"[1]; 100 microliters alone, 3:30 min",4.2 and 2.84 and 2.57 and 4.01 and 4.46
same,pH,"[1]; 100 microliters alone, 3:45 min",4.16 and 2.81 and 2.54 and 3.97 and 4.4
same,pH,"[1]; 100 microliters alone, 4:00 min",4.14 and 2.78 and 2.5 and 3.93 and 4.38
same,pH,"[1]; 100 microliters alone, 4:15 min",4.1 and 2.75 and 2.49 and 3.86 and 4.35
same,pH,"[1]; 100 microliters alone, 4:30 min",4.09 and 2.74 and 2.46 and 3.84 and 4.32
same,pH,"[1]; 100 microliters alone, 4:45 min",4.06 and 2.72 and 2.42 and 3.8 and 4.3
same,pH,"[1]; 100 microliters alone, 5:00 min",4.05 and 2.7 and 2.41 and 3.74 and 4.29
same,pH,"[1]; 200 microliters alone, 1:00 min",4.91 and 3.36 and 3.21 and 5.41 and 4.80
same,"Changes, pH (lower line)","[1]; 200 microliters alone, lower line of Changes (fits 0:00 vs 5:00)",1.85 and 2.70 and 3.42 and 2.10 and 2.42
same,Injections producing greater than one degree Celsius temperature change,[1]; 300 microliters alone,three out of five injections
same,"Tissue destruction, visual observation",[1],larger volumes of Acetic Anhydride correlated with greater areas of tissue destruction
same,Recorded temperature change,[2],1.4-9.4 degrees C.
same,Final thermocouple pH after five minutes,[2],overwhelmingly basic
CC(=O)Cl [Acetyl Chloride],Temp,"[1]; 100 microliters alone, different temp probe, 0:00 min",16.4 C. and 17.1 C. and 17.4 C. and 16.6 C. and 17 C.
same,Temp,"[1]; 100 microliters alone, different temp probe, 0:30 min",22.5 C. and 32 C. and 39 C. and 42.2 C. and 32.3 C.
same,Temp,"[1]; 100 microliters alone, different temp probe, 0:45 min",21.5 C. and 27.5 C. and 33.5 C. and 33.9 C. and 27.3 C.
same,Temp,"[1]; 100 microliters alone, different temp probe, 1:00 min",21 C. and 25 C. and 30.6 C. and 30.7 C. and 25.7 C.
same,Temp,"[1]; 100 microliters alone, different temp probe, 1:15 min",20.2 C. and 24 C. and 28.4 C. and 27.8 C. and 23.9 C.
same,Temp,"[1]; 100 microliters alone, different temp probe, 1:30 min",19.6 C. and 23.5 C. and 27 C. and 26.2 C. and 23.1 C.
same,Temp,"[1]; 100 microliters alone, different temp probe, 1:45 min",19 C. and 22.7 C. and 25.6 C. and 25 C. and 22.3 C.
same,Temp,"[1]; 100 microliters alone, different temp probe, 2:00 min",18.4 C. and 22.1 C. and 24.7 C. and 24.2 C. and 21.6 C.
same,Temp,"[1]; 100 microliters alone, different temp probe, 2:15 min",18.3 C. and 21.4 C. and 23.9 C. and 23.2 C. and 21.1 C.
same,Temp,"[1]; 100 microliters alone, different temp probe, 2:30 min",18.1 C. and 21.1 C. and 23.3 C. and 22.6 C. and 20.6 C.
same,Temp,"[1]; 100 microliters alone, different temp probe, 2:45 min",18 C. and 20.6 C. and 22.6 C. and 22 C. and 20.2 C.
same,Temp,"[1]; 100 microliters alone, different temp probe, 3:00 min",17.9 C. and 20.3 C. and 22.1 C. and 21.5 C. and 19.9 C.
same,Temp,"[1]; 100 microliters alone, different temp probe, 3:15 min",17.8 C. and 20.1 C. and 21.7 C. and 21.1 C. and 19.6 C.
same,Temp,"[1]; 100 microliters alone, different temp probe, 3:45 min",17.6 C. and 19.5 C. and 21 C. and 20.4 C. and 19.1 C.
same,Temp,"[1]; 100 microliters alone, different temp probe, 4:00 min",17.5 C. and 19.4 C. and 20.7 C. and 20.1 C. and 18.9 C.
same,Temp,"[1]; 100 microliters alone, different temp probe, 4:15 min",17.5 C. and 19.2 C. and 20.4 C. and 19.9 C. and 18.9 C.
same,Temp,"[1]; 100 microliters alone, different temp probe, 4:30 min",17.4 C. and 19 C. and 20.2 C. and 19.6 C. and 18.6 C.
same,Temp,"[1]; 100 microliters alone, different temp probe, 4:45 min",17.3 C. and 18.8 C. and 20 C. and 19.4 C. and 18.4 C.
same,Temp,"[1]; 100 microliters alone, different temp probe, 5:00 min",17.3 C. and 18.6 C. and 19.8 C. and 19.2 C. and 18.3 C.
same,pH,[1]; [3],6.14 and 6.55 and 6.5 and 5.7
same,pH,[1]; [4],3.1 and 4.67 and 4.62 and 4.82
same,pH,[1]; [5],2.5 and 3.59 and 3.32 and 4.57
same,Temp,[1]; [6],27.4 C. and 24.5 C. and 23.4 C. and 22.8 C.
same,Temp,[1]; [7],26.2 C.
same,"Tissue destruction, visual observation",[1],more violent and rapid tissue destruction than Acetic Anhydride
same,Temperature changes,"[2]; 100, 200, 300 microliters after 100 or 200 microliters of 1M-15M NaOH, 21 injections",7.9-32 degrees Celsius
same,Final thermocouple pH after five minutes,[2],more acidic pH
same,Temperature changes in the first thirty seconds after injection,"[2]; eleven of the twenty-one runs, with NaOH",20-30 degrees Celsius
